{"source": "patent US7659299B2", "about": "“Compounds inhibiting the binding of sap for treating osteoarthritis” (Pentraxin Therapeutics Limited, priority 2003, dated 2010)", "molecular_target": "SAP (Homo sapiens, UniProt P02743)", "sequence (P02743 20-223)": "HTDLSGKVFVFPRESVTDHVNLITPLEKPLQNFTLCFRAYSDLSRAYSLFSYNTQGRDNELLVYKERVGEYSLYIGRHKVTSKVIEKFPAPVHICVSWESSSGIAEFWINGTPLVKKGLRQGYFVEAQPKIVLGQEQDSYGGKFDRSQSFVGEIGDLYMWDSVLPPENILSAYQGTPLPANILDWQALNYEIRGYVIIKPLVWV", "test": "Isothermal calorimetry: dissociation constants between SAP and compounds", "type": "binding", "details": "replicate measurements, read-out: Kd in micromoles per liter (replicate measurements)", "from_the_text": "Surface plasmon resonance (SPR) is a low throughput but powerfully informative method to identify compounds that are bound by, or themselves bind to SAP, either in a calcium dependent fashion or independently of calcium, for the purposes of the present invention. For example, low molecular weight compounds that inhibit binding of SAP to its macromolecular ligands, including target ligands relevant to the present invention, can be detected by their effect on the signal generated by fluid phase SAP binding to ligand immobilised on the solid phase (Example A). Furthermore, when SAP itself is immobilised on the solid phase in an SPR instrument, the interaction with it of test molecules provided in the fluid phase generates a signal that can be detected and quantified. Purified SAP immobilized within an SPR instrument gives a quantifiable signal when it is exposed to another molecule that forms a complex with the SAP, and this is distinct from the absence of such a signal if no complex is formed. […] Another low throughput but powerful direct method is isothermal calorimetry that measures the heat of interaction in solution between SAP and test compounds according to the present invention. The binding affinity can be measured precisely as a guide to potential efficacy. Typical results by this method for the dissociation constants, Kd, between SAP and various compounds are as follows: […]", "note": "pKd: −log10 of the molar value. Values joined by “and” are separate entries in the source; they are usually repeats but may differ in a detail not shown here. Identical values can stand only once.", "data": [{"smiles": "O=C(O)[C@H]1CCCN1C(=O)CCCCC(=O)N1CCC[C@@H]1C(=O)O", "note": "[Ro-63-8695, (R)-1-[6-[(R)-2-Carboxy-pyrrolidin-1-yl]-6-oxo-hexanoyl]pyrrolidine-2-carboxylic acid]", "values": [{"measurement": "pKd", "value": "7.86 and 8.23 and 8.19 and 8.06"}]}]}
